Reference: ChEMBL document CHEMBL5055643, “Sophoraflavanone G Resensitizes ABCG2-Overexpressing Multidrug-Resistant Non-Small-Cell Lung Cancer Cells to Chemotherapeutic Drugs” (J Nat Prod, 2021)

Assays:
[1] = test system: KB 3-1; test: Chemo-sensitizing activity against human KB 3-1 cells assessed as reversal fold at 2 uM measured after 72 hrs in presence of paclitaxel by CCK8 assay relative to control; format: functional
[2] = test system: HEK293; test: Chemo-sensitizing activity against ABCB1-overexpressing human HEK293/MDR19 cells assessed as reversal fold at 1 uM measured after 72 hrs in presence of colchicine by CCK8 assay relative to control; format: functional
[3] = test system: NCI-H460; test: Chemo-sensitizing activity against mitoxantrone-selected ABCG2-overexpressing human NCI-H460/MX20 cells assessed as reversal fold at 1 uM measured after 72 hrs in presence of SN-38 by CCK8 assay relative to control; format: functional
[4] = test system: HEK293; test: Chemo-sensitizing activity against ABCB1-overexpressing human HEK293/MDR19 cells assessed as reversal fold at 2 uM measured after 72 hrs in presence of paclitaxel by CCK8 assay relative to control; format: functional
[5] = test system: A549; test: Chemo-sensitizing activity against becatecarin-selected ABCG2-overexpressing human A549/Bec150 cells assessed as reversal fold at 5 uM measured after 72 hrs in presence of topotecan by CCK8 assay relative to control; format: functional
[6] = test system: NCI-H460; test: Cytotoxicity against mitoxantrone-selected ABCG2-overexpressing human NCI-H460/MX20 cells assessed as reduction in cell viability measured after 72 hrs by CCK8 assay; format: ADME, cell-based; details: NCI-H460, 72 h
[7] = test system: A549; test: Chemo-sensitizing activity against becatecarin-selected ABCG2-overexpressing human A549/Bec150 cells assessed as reversal fold at 1 uM measured after 72 hrs in presence of mitoxantrone by CCK8 assay relative to control; format: functional
[8] = Cytotoxicity against human A549 cells assessed as cell viability at 1 to 5 uM measured after 72 hrs by CCK8 assay; format: cell-based; details: dose 1-5 µM, read-out: Activity
[9] = test system: OVCAR-8; test: Chemo-sensitizing activity against human OVCAR-8 cells assessed as reversal fold at 1 uM measured after 72 hrs in presence of vincristine by CCK8 assay relative to control; format: functional
[10] = test system: OVCAR-8; test: Chemo-sensitizing activity against human OVCAR-8 cells assessed as reversal fold at 5 uM measured after 72 hrs in presence of vincristine by CCK8 assay relative to control; format: functional
[11] = test system: HEK293; test: Chemo-sensitizing activity against ABCG2-overexpressing human HEK293/482R cells assessed as reversal fold at 2 uM measured after 72 hrs in presence of SN-38 by CCK8 assay relative to control; format: functional
[12] = test system: NCI/ADR-RES; test: Chemo-sensitizing activity against ABCB1-overexpressing human NCI/ADR-RES cells assessed as reversal fold at 5 uM measured after 72 hrs in presence of vincristine by CCK8 assay relative to control; format: functional
[13] = test system: HEK293; test: Chemo-sensitizing activity against ABCG2-overexpressing human HEK293/482R cells assessed as reversal fold at 5 uM measured after 72 hrs in presence of SN-38 by CCK8 assay relative to control; format: functional
[14] = test system: KB-V1; test: Chemo-sensitizing activity against ABCB1-overexpressing human KB-V1 cells assessed as reversal fold at 1 uM measured after 72 hrs in presence of paclitaxel by CCK8 assay relative to control; format: functional
[15] = target: T1, ABCG2 (Homo sapiens, UniProt Q9UNQ0); test: Inhibition of ABCG2 in becatecarin-selected ABCG2-overexpressing human A549/Bec150 cells assessed as increase in intracellular mitoxantrone accumulation at 20 uM incubated for 1 hr in presence of mitoxantrone by flow cytometry; format: cell-based; details: probe mitoxantrone
T1 sequence (Q9UNQ0 whole entry): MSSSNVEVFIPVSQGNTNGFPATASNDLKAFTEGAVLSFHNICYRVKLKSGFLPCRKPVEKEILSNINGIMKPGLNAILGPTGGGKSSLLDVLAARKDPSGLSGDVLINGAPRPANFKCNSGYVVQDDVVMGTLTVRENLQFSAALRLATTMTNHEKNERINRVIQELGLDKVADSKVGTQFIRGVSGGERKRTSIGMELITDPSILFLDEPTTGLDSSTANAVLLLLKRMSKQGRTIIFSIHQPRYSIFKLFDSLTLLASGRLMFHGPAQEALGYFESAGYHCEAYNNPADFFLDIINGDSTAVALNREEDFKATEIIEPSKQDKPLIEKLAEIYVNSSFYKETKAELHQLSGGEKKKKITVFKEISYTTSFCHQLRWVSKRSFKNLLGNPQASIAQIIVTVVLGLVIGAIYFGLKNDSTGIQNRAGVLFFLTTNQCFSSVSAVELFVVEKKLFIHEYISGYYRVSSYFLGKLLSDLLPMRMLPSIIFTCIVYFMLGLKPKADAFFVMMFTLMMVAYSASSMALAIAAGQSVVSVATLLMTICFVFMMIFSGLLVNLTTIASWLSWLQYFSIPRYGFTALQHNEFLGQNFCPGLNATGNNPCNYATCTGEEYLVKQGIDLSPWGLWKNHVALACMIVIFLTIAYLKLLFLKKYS

[16] = test system: A549; test: Chemo-sensitizing activity against becatecarin-selected ABCG2-overexpressing human A549/Bec150 cells assessed as reversal fold at 5 uM measured after 72 hrs in presence of mitoxantrone by CCK8 assay relative to control; format: functional
[17] = test system: HEK293; test: Cytotoxicity against ABCG2-overexpressing human HEK293/482R cells assessed as reduction in cell viability measured after 72 hrs by CCK8 assay; format: ADME, cell-based; details: HEK293, 72 h
[18] = test system: HEK293; test: Chemo-sensitizing activity against human HEK293 cells assessed as reversal fold at 2 uM measured after 72 hrs in presence of colchicine by CCK8 assay relative to control; format: functional
[19] = test system: A549; test: Chemo-sensitizing activity against becatecarin-selected ABCG2-overexpressing human A549/Bec150 cells assessed as reversal fold at 2 uM measured after 72 hrs in presence of SN-38 by CCK8 assay relative to control; format: functional
[20] = test system: HEK293; test: Chemo-sensitizing activity against ABCG2-overexpressing human HEK293/482R cells assessed as reversal fold at 2 uM measured after 72 hrs in presence of mitoxatrone by CCK8 assay relative to control; format: functional
[21] = test system: ABCG2; test: Resistance factor, ratio of IC50 for ABCG2-overexpressing human HEK293/482R cells to IC50 for human HEK293 cells; format: ADME; details: read-out: Ratio IC50
[22] = test system: NCI-H460; test: Chemo-sensitizing activity against human NCI-H460 cells assessed as reversal fold at 5 uM measured after 72 hrs in presence of topotecan by CCK8 assay relative to control; format: functional
[23] = test system: HEK293; test: Chemo-sensitizing activity against ABCB1-overexpressing human HEK293/MDR19 cells assessed as reversal fold at 2 uM measured after 72 hrs in presence of colchicine by CCK8 assay relative to control; format: functional
[24] = test system: HEK293; test: Chemo-sensitizing activity against human HEK293 cells assessed as reversal fold at 5 uM measured after 72 hrs in presence of mitoxatrone by CCK8 assay relative to control; format: functional
[25] = test system: HEK293; test: Chemo-sensitizing activity against human HEK293 cells assessed as reversal fold at 1 uM measured after 72 hrs in presence of paclitaxel by CCK8 assay relative to control; format: functional
[26] = test system: NCI-H460; test: Chemo-sensitizing activity against mitoxantrone-selected ABCG2-overexpressing human NCI-H460/MX20 cells assessed as reversal fold at 2 uM measured after 72 hrs in presence of SN-38 by CCK8 assay relative to control; format: functional

In the case of `C=C(C)[C@H](CC=C(C)C)Cc1c(O)cc(O)c2c1O[C@H](c1ccc(O)cc1O)CC2=O` [SOPHORAFLAVANONE G], the “fold change (FC)” value [1] is reported as 1.1, the “fold change (FC)” value [2] is reported as 0.8 and the “fold change (FC)” value [3] is reported as 2.6. For the same compound, the “fold change (FC)” value [4] was 1.2, the “fold change (FC)” value [5] was 2.9 and the IC50 [6] was 22.1 µM. The “fold change (FC)” value [7] was 2.7, the viability at 72 h, up to 5 µM [8] was > 90% and the “fold change (FC)” value [9] was 1. The “fold change (FC)” value [10] was 1.7, the “fold change (FC)” value [11] was 2.4 and the “fold change (FC)” value [12] was 1.1. The “fold change (FC)” value [13] was 6.4, the “fold change (FC)” value [14] was 0.9 and the inhibition at 1 h, 20 µM [15] was 100%. For the same compound, the “fold change (FC)” value [16] was 9.1, the IC50 [17] was 49.7 µM and the “fold change (FC)” value [18] was 0.9. For the same compound, the “fold change (FC)” value [19] was 2.7, the “fold change (FC)” value [20] was 3.2 and the selectivity ratio [21] was 1.4. For the same compound, the “fold change (FC)” value [22] was 3, the “fold change (FC)” value [23] was 0.8 and the “fold change (FC)” value [24] was 1.1. The “fold change (FC)” value [25] was 1.1 and the “fold change (FC)” value [26] was 3.7.
